Data on 1 molecule can be found in paper PMC4533002 (2015).

Test [1] relates to F-St1A/St2 split adenosine aptamer (initial sandwich) (DNA, aptamer) ACCTGGGGGAGTA/TGCGGAGGAAGGT
As to the kind of experiment: fluorescence anisotropy. Particulars: 50 mM NaCl, 10 mM MgCl2, 10 mM Tris pH 7.5, 25 °C, 10 nM F-St1A, 400 nM St2.

In test [2] the test system is F-St1A/St2-AmpA split adenosine aptamer with primer regions (DNA, aptamer) ACCTGGGGGAGTA/CCAACCGTGAAAAGATGATGGTGCGGAGGAAGGTCTTAGGTCTATCCCGATGCC
As to the kind of experiment: fluorescence anisotropy. Conditions: 50 mM NaCl, 10 mM MgCl2, 10 mM Tris pH 7.5, 25 °C, 10 nM F-St1A, 400 nM St2-AmpA. For orientation: Fluorescence polarisation rises when a labelled molecule tumbles more slowly, as on binding a larger partner.

Test [3] concerns F-St1A/St2-AmpA-Rev primA duplex split adenosine aptamer (DNA, aptamer) ACCTGGGGGAGTA/CCAACCGTGAAAAGATGATGGTGCGGAGGAAGGTCTTAGGTCTATCCCGATGCC/GGCATCGGGATAGACCTAAG
Briefly: fluorescence anisotropy. Particulars: 50 mM NaCl, 10 mM MgCl2, 10 mM Tris pH 7.5, 25 °C, 10 nM F-St1A, 400 nM St2-AmpA-Rev primA duplex.

Test [4] relates to St1-CholA/F-St2-AmpA/Rev primA (system A) (DNA, aptamer) ACCTGGGGGAGTA/CCAACCGTGAAAAGATGATGGTGCGGAGGAAGGTCTTAGGTCTATCCCGATGCC/GGCATCGGGATAGACCTAAG
Briefly: capillary electrophoresis with LIF (MEKC). Conditions: 50 mM NaCl, 10 mM MgCl2 (incubation); 25 mM NaCl (running buffer); Tris pH 7.5 (incubation), pH 7.8 (running), 0.5 mM Brij 35, 20 °C; 500-2000 μM adenosine.

Test [5] has as its system St1-CholB/St2-AmpB/Rev primB (system B) (DNA, aptamer) ATACCTGGGGGAGTATATAAT/CACACAGGAAACAGCGTATGACAATTATAGCGGAGGAAGGTATCCGTAGCCCTATCTGGATTGC/GCAATCCAGATAGGGCTACGG
Briefly: capillary electrophoresis isolation with real-time PCR. Particulars: 25 mM NaCl, 5 mM MgCl2; 20 mM Tris pH 7.5, 0.5 mM Brij 35, 20 °C; adenosine up to 50 μM. In general terms: Quantitative PCR measures a nucleic acid by following its amplification.

In general, apparent Kd refers to the concentration giving half-maximal binding under the conditions of the assay.

Turning to `Nc1ncnc2c1ncn2[C@@H]1O[C@H](CO)[C@@H](O)[C@H]1O`, the figures for the “apparent Kd” value in test [1], in test [2] and in test [3] were ~ 90 μM, greater than 500 µM and ~ 90 μM, respectively. Moreover, the binding result in test [4] and in test [5] was “yes” each time.
